Data on one compound can be found in patent JP2008179567A, “ピラジン誘導体を有効成分とする抗がん剤” (Toray Industries Inc, priority 2007, dated 2008).

Series [1] has as its system tumor derived from Colon26 cells, mouse colon cancer model [Colon26細胞由来の腫瘍, マウス結腸癌モデル]. The experiment in a line: Tumor growth inhibition in mouse colon cancer model (Colon26, BALB/c). Format: in vivo. Conditions: 50 mg/kg i.v., sodium salt.
Series [2] is described as follows: Body weight and organ damage in mouse colon cancer model. Conditions: end of test, 50 mg/kg i.v.; sodium salt. The format is in vivo.

On to `Nc1nn(-c2cncc(-n3ccc(CC(=O)O)c3)n2)c2cc(Cl)ccc12` [参考例6, 2-{1-[6-(3-アミノ-6-クロロ-1H-インダゾリル)ピラジン-2-イル]ピロール-3-イル}酢酸], for which, in series [1] (from day 5 after start of dosing, compared with control group (Fig. 1)), the estimated tumor volume entry is on record as “対照群に比較して小さくなった”. Besides, the tumor growth rate in series [1] (day 7 after start of dosing, n=10, relative to estimated tumor volume on day 1, control 1068±197%, P=0.02 (Fig. 2)) was 493±81%. The tumor weight in series [1] (day 15 after start of dosing, n=10, control 2.11±0.25 g, P=0.20) is 1.57 ± 0.31 g. In addition, the “reduction of tumor weight” value in series [1] (day 15 after start of dosing, vs control group, P=0.20) was found to be 25%. Moreover, in series [2], the “body weight difference from control group” value is “体重の差はなく” and the organ damage entry was “各臓器の障害は何ら認められなかった”.
